Test results from patent US11992558B2, “Controlled release formulation comprising flavoxate” (priority 2018, dated 2024).
Read-outs that look alike come from different tables or passages of the source.

Assays:
[1] = cited from earlier work
[2] = Solubility of flavoxate in various solvents at 20° C.; assay type: physicochemical
Protocol: (§1) Solubility of flavoxate hydrochloride was determined in various aqueous buffers, water, ethanol, acetone and ethyl ether at 20° C. and at ambient temperature (20 to 25° C.).

[3] = pH-dependent aqueous solubility at ambient temperature; assay type: physicochemical; conditions: 20 °C
Protocol: as §1

[4] = Flow properties of drug powder; assay type: physicochemical
Protocol: Tapped density • 2. Bulk density • 3. Compressibility Index and Hausner ratio • 4. Angle of repose Solubility: Flowability measures how uniformly the powder flows from the hopper into the tablet die and is an index of how well the tablet die will be filled to a constant volume. […] Similarly, the angle between the freestanding surface of a powder heap and horizontal plane is the angle of repose. […] flowability was less and could be improved with addition of lubricants during tablet-making. Results of tests to determine the Angle of repose (35°), Carr's index (33.3%), bulk density (0.236 gm/ml) and tapped density ([…]) indicate that the drug powder had poor flow properties.

[5] = Drug-excipient compatibility (Total RS); assay type: physicochemical
Protocol: Experiments were conducted to ascertain compatibility of the drug with commonly used excipients.

In the case of `Cc1c(-c2ccccc2)oc2c(C(=O)O)cccc2c1=O` [MFCA, 3-methylflavone-8-carboxylic acid], the “half-life t½” value ([1]; MFCA) is listed as 3.5 h.

With `Cc1c(-c2ccccc2)oc2c(C(=O)OCCN3CCCCC3)cccc2c1=O.Cl` [flavoxate, 2-piperidinoethyl-3-methylflavone 8-carboxylate hydrochloride] the Solubility % w/v ([2]; Acetone) was “Insoluble”, the Solubility % w/v ([2]; Chloroform) was 2.50 % w/v and the Solubility % w/v ([2]; Ethanol) was 0.20 % w/v. For the same molecule, the Solubility % w/v ([2]; Ethyl Ether) was “Insoluble”, the Solubility % w/v ([2]; Methanol) was 0.90 % w/v and the solubility ([2]; Water, read-out: Solubility % w/v) was 7500 µg/mL. The solubility ([3]; aqueous buffer, 0.05N Phosphate Buffer, pH 2.5, 20 to 25° C.) was 7640 µg/mL, the solubility ([3]; aqueous buffer, 0.05N Phosphate Buffer, pH 4.5, 20 to 25° C.) was 13700 µg/mL and the solubility ([3]; aqueous buffer, 0.05N Phosphate Buffer, pH 6.0, 20 to 25° C.) was 15400 µg/mL. It also gave a solubility ([3]; aqueous buffer, 0.05N Phosphate Buffer, pH 6.8, 20 to 25° C.) of 6170 µg/mL, a solubility ([3]; aqueous buffer, 0.05N Phosphate Buffer, pH 7.2, 20 to 25° C.) of 1040 µg/mL and a solubility ([3]; aqueous buffer, 0.05N Phosphate Buffer, pH 7.5, 20 to 25° C.) of 580 µg/mL. It also gave a solubility ([3]; simulated gastric fluid, 0.1N HCl, pH 1.2, 20 to 25° C.) of 570 µg/mL, a solubility ([3]; Water, pH 5.7, 20 to 25° C.) of 11300 µg/mL and an Angle of repose [4] of 35 °. For the same molecule, the “Carr's index” value [4] was 33.3%, the bulk density [4] was 0.236 gm/ml and the tapped density [4] was 0.355 g/mL. The “Total R.S. (%) 30 D/40° C./75% RH*” value ([5]; 30 days at 40° C. and 75% relative humidity) was 0.04%, the “Total R.S. (%) Initial” value ([5]; initial) was 0.02% and the “duration of therapeutic activity” value ([1]; in vivo) was 5 to 6 h. For the same molecule, the “free flavoxate in urine” value ([1]; in vivo) was “No free flavoxate was found”, the “time of peak level of MFCA” value ([1]; oral 400 mg dose) was “around two hours” and the “time of peak level of MFCA” value ([1]; oral administration of 200 mg dose) was 30 to 60 min. The “dose excreted as MFCA within 12 hours” value ([1]; oral, within 12 hours) was “About 50%” and the “dose excreted as MFCA” value ([1]; urine, 24 hours, intravenous) was 47%.
